Test results as given in patent US20120178915A1, “PYRIMIDINE DERIVATIVES AND ANALOGS, PREPARATION METHOD AND USE THEREOF” (priority 2009, published 2012).
≈ marks a conversion by molar mass, not a printed value. Read-outs that look alike come from different tables or passages of the source.

Tests used:
Type in all cases: cell-based
[1] = test system: Oral candidiasis; assay: MIC broth microdilution; conditions: Microorganism 32, Oral candidiasis; 37° C., 24 h; read-out: Minimum Inhibitory Concentration, MIC
[2] = test system: Streptococcus pneumoniae 6303 (PRSP); assay: microbe, parasite or virus in culture; conditions: 24 h, read-out: Minimum Inhibitory Concentration, MIC
[3] = test system: Staphylococcus aureus 704 (MRSA); assay: microbe, parasite or virus in culture; conditions: 24 h, read-out: Minimum Inhibitory Concentration, MIC
[4] = test system: Enterococcus faecalis 29212; assay: microbe, parasite or virus in culture; conditions: 37° C., 24 h, read-out: Minimum Inhibitory Concentration, MIC
[5] = test system: Corynebacterium diphtheriae; assay: microbe, parasite or virus in culture; conditions: 37° C., 24 h, read-out: Minimum Inhibitory Concentration, MIC
[6] = test system: Pyogenic Streptococcus; assay: microbe, parasite or virus in culture; conditions: 37° C., 24 h, read-out: Minimum Inhibitory Concentration, MIC
[7] = test system: Staphylococcus aureus 43300 (MRSA); assay: microbe, parasite or virus in culture; conditions: 24 h, read-out: Minimum Inhibitory Concentration, MIC
[8] = test system: Clostridium tetani; assay: microbe, parasite or virus in culture; conditions: 24 h
[9] = test system: Bacillus cereus 2; assay: microbe, parasite or virus in culture; conditions: 37° C., 24 h, read-out: Minimum Inhibitory Concentration, MIC
[10] = test system: Streptococcus pneumoniae 6301; assay: microbe, parasite or virus in culture; conditions: 37° C., 24 h, read-out: Minimum Inhibitory Concentration, MIC
[11] = test system: Gram-positive Bacteria; conditions: the majority of Bacillus cereus, Bacillus subtilis and Enterococcus faecalis
[12] = test system: Bacillus anthracis 1; assay: microbe, parasite or virus in culture; conditions: Bacillus anthracis, 1, 24 h, read-out: Minimum Inhibitory Concentration, MIC
[13] = test system: Staphylococcus aureus 29231; assay: microbe, parasite or virus in culture; conditions: 37° C., 24 h, read-out: Minimum Inhibitory Concentration, MIC
[14] = test system: Enterococcus faecalis 1513 (VRE); assay: microbe, parasite or virus in culture; conditions: 24 h, read-out: Minimum Inhibitory Concentration, MIC
[15] = test system: Streptococcus bovis 10035; assay: microbe, parasite or virus in culture; conditions: Streptococcus equinus, 37° C., 24 h, read-out: Minimum Inhibitory Concentration, MIC
[16] = MIC broth microdilution; conditions: Microorganism 33, Dermatophytosis; 37° C., 24 h; read-out: Minimum Inhibitory Concentration, MIC
[17] = test system: Bacillus subtilis 168; assay: microbe, parasite or virus in culture; conditions: 37° C., 24 h, read-out: Minimum Inhibitory Concentration, MIC
[18] = test system: Streptococcus 10342; assay: MIC broth microdilution; conditions: 37° C., 24 h, read-out: Minimum Inhibitory Concentration, MIC
[19] = test system: Streptococcus pneumoniae 10351; assay: microbe, parasite or virus in culture; conditions: 37° C., 24 h, read-out: Minimum Inhibitory Concentration, MIC
[20] = test system: Enterococcus faecalis 19433; assay: microbe, parasite or virus in culture; conditions: 37° C., 24 h, read-out: Minimum Inhibitory Concentration, MIC
[21] = test system: Bacillus subtilis 82; assay: microbe, parasite or virus in culture; conditions: 37° C., 24 h, read-out: Minimum Inhibitory Concentration, MIC
[22] = test system: Staphylococcus aureus 705 (MRSA); assay: microbe, parasite or virus in culture; conditions: 24 h, read-out: Minimum Inhibitory Concentration, MIC
[23] = test system: Clostridium perfringens; assay: microbe, parasite or virus in culture; conditions: 24 h, read-out: Minimum Inhibitory Concentration, MIC
[24] = test system: Staphylococcus aureus 703 (MRSA); assay: microbe, parasite or virus in culture; conditions: 24 h, read-out: Minimum Inhibitory Concentration, MIC
[25] = test system: Enterococcus faecalis 51299; assay: microbe, parasite or virus in culture; conditions: Enterococcus faecalis, 51299, 24 h, read-out: Minimum Inhibitory Concentration, MIC
[26] = test system: green Streptococcus 1009; assay: microbe, parasite or virus in culture; conditions: 37° C., 24 h, read-out: Minimum Inhibitory Concentration, MIC
[27] = test system: Streptococcus agalactiae B; assay: microbe, parasite or virus in culture; conditions: 37° C., 24 h, read-out: Minimum Inhibitory Concentration, MIC
[28] = test system: Enterococcus fecal F631 (VRE); assay: organism not typed; conditions: 24 h, read-out: Minimum Inhibitory Concentration, MIC
[29] = test system: Enterococcus faecalis F2518 (VRE); assay: microbe, parasite or virus in culture; conditions: 24 h, read-out: Minimum Inhibitory Concentration, MIC
[30] = test system: Bacillus cereus 246; assay: microbe, parasite or virus in culture; conditions: 37° C., 24 h, read-out: Minimum Inhibitory Concentration, MIC
[31] = test system: Streptococcus pneumoniae 62; assay: microbe, parasite or virus in culture; conditions: 37° C., 24 h, read-out: Minimum Inhibitory Concentration, MIC
[32] = test system: Streptococcus pneumoniae M2; assay: microbe, parasite or virus in culture; conditions: 37° C., 24 h, read-out: Minimum Inhibitory Concentration, MIC
[33] = test system: Enterococcus faecalis 583 (VRE); assay: microbe, parasite or virus in culture; conditions: 24 h, read-out: Minimum Inhibitory Concentration, MIC
[34] = read-out: Minimum Inhibitory Concentration, MIC, Microorganism 29, Clostridium tetani, 37° C.
[35] = read-out: Minimum Inhibitory Concentration, MIC, Microorganism 30, Clostridium tetani (second line of that name), 37° C.

Compound: O=c1[nH]c(-c2ccc(C(F)(F)F)cc2)nc2cc(Cl)ccc12 [Compound 14]
- MIC [1]: 133 µM (≈ 43.2 µg/mL)
- MIC [2]: 250 µM (≈ 81.2 µg/mL)
- MIC [3]: 160 µM (≈ 52 µg/mL)
- MIC [4]: 15 µM (≈ 4.87 µg/mL)
- MIC [5]: 135 µM (≈ 43.9 µg/mL)
- MIC [6]: 132 µM (≈ 43 µg/mL)
- MIC [7]: 120 µM (≈ 39.1 µg/mL)
- MIC [8, 34]: 160 µM (≈ 52 µg/mL)
- MIC [8, 35]: 120 µM (≈ 39.1 µg/mL)
- MIC [9]: 20.2 µM (≈ 6.57 µg/mL)
- MIC [10]: 141 µM (≈ 45.7 µg/mL)
- inhibition of growth (conclusion from MICs) [11]: significantly inhibited the growth
- MIC [12]: 122 µM (≈ 39.8 µg/mL)
- MIC [13]: 6.31 µM (≈ 2.05 µg/mL)
- MIC [14]: 130 µM (≈ 42.3 µg/mL)
- MIC [15]: 100 µM (≈ 32.6 µg/mL)
- MIC [16]: 121 µM (≈ 39.4 µg/mL)
- MIC [17]: 12.5 µM (≈ 4.06 µg/mL)
- MIC [18]: 170 µM (≈ 55.4 µg/mL)
- MIC [19]: 104 µM (≈ 33.6 µg/mL)
- MIC [20]: 13.5 µM (≈ 4.38 µg/mL)
- MIC [21]: 10.3 µM (≈ 3.35 µg/mL)
- MIC [22]: 210 µM (≈ 68.3 µg/mL)
- MIC [23]: 125 µM (≈ 40.6 µg/mL)
- MIC [24]: 125 µM (≈ 40.6 µg/mL)
- MIC [25]: 21.5 µM (≈ 6.98 µg/mL)
- MIC [26]: 126 µM (≈ 40.7 µg/mL)
- MIC [27]: 225 µM (≈ 73.1 µg/mL)
- MIC [28]: 221 µM (≈ 71.8 µg/mL)
- MIC [29]: 122 µM (≈ 39.7 µg/mL)
- MIC [30]: 30.2 µM (≈ 9.79 µg/mL)
- MIC [31]: 100 µM (≈ 32.5 µg/mL)
- MIC [32]: 120 µM (≈ 39 µg/mL)
- MIC [33]: 120 µM (≈ 39.1 µg/mL)

Compound: O=C1C(c2ccccc2)C(O)=Nc2cc(-c3ccc(C(F)(F)F)cc3)nn21 (centres unmarked) [Compound 42]
- MIC [1]: 21.3 µM (≈ 7.91 µg/mL)
- MIC [2]: 203 µM (≈ 75.4 µg/mL)
- MIC [3]: 230 µM (≈ 85.5 µg/mL)
- MIC [4]: 20.5 µM (≈ 7.61 µg/mL)
- MIC [5]: 32 µM (≈ 11.9 µg/mL)
- MIC [6]: 1.23 µM (≈ 0.457 µg/mL)
- MIC [7]: 150 µM (≈ 55.8 µg/mL)
- MIC [8, 34]: 30.2 µM (≈ 11.2 µg/mL)
- MIC [8, 35]: 80.3 µM (≈ 29.8 µg/mL)
- MIC [9]: 0.25 µM (≈ 0.0928 µg/mL)
- MIC [10]: 0.23 µM (≈ 0.0854 µg/mL)
- inhibition of growth (conclusion from MICs) [11]: significantly inhibited the growth
- MIC [12]: 32.5 µM (≈ 12.1 µg/mL)
- MIC [13]: 0.28 µM (≈ 0.104 µg/mL)
- MIC [14]: 20.1 µM (≈ 7.46 µg/mL)
- MIC [15]: 1.28 µM (≈ 0.475 µg/mL)
- MIC [16]: 52.1 µM (≈ 19.3 µg/mL)
- MIC [17]: 1.23 µM (≈ 0.457 µg/mL)
- MIC [18]: 15.5 µM (≈ 5.76 µg/mL)
- MIC [19]: 1.25 µM (≈ 0.464 µg/mL)
- MIC [20]: 18.2 µM (≈ 6.76 µg/mL)
- MIC [21]: 0.02 µM (≈ 0.00743 µg/mL)
- MIC [22]: 180 µM (≈ 66.9 µg/mL)
- MIC [23]: 2.01 µM (≈ 0.746 µg/mL)
- MIC [24]: 172 µM (≈ 63.9 µg/mL)
- MIC [25]: 21.2 µM (≈ 7.87 µg/mL)
- MIC [26]: 1.25 µM (≈ 0.464 µg/mL)
- MIC [27]: 0.55 µM (≈ 0.204 µg/mL)
- MIC [28]: 21.2 µM (≈ 7.87 µg/mL)
- MIC [29]: 18.2 µM (≈ 6.76 µg/mL)
- MIC [30]: 0.23 µM (≈ 0.0854 µg/mL)
- MIC [31]: 0.25 µM (≈ 0.0928 µg/mL)
- MIC [32]: 0.02 µM (≈ 0.00743 µg/mL)
- MIC [33]: 30.3 µM (≈ 11.3 µg/mL)
